# Where two headings read alike, the source gives them in different places.
# Tests used:
# adenosine A1 receptor = molecular target: T1, adenosine A1 receptor (Rattus norvegicus, UniProt P25099); assay: Adenosine Receptor Binding - A1 Receptor Affinity (RBA1), [3H]-N6-cyclohexyladenosine displacement; conditions: [3H]-CHA 1.0 nM, rat brain membranes, 25° C., one hour; read-out: RBA-1, IC50 for adenosine A1 receptor affinity
# T1 construct: Whole brain minus cerebellum and brainstem from male Long Evans rats; from tissue; host or cells: whole brain minus cerebellum and brainstem, male Long Evans rats (membranes)
# T1 sequence (P25099 1-326): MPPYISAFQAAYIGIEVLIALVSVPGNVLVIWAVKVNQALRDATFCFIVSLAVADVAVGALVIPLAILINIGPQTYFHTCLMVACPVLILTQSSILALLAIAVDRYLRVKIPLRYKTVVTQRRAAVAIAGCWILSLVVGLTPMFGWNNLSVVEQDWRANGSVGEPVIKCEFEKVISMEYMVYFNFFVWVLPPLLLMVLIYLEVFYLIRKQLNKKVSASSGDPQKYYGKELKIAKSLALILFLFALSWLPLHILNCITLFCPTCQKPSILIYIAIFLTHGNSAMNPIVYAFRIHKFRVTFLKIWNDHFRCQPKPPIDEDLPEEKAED
# Method: Whole brain minus cerebellum and brainstem from male Long Evans rats (150-200 g) was homogenized in 30 volumes of ice-cold 0.05M Tris-HCl buffer pH 7.7 using a Brinkman Polytron PT-10, (setting number 6 for 20 seconds) and centrifuged for ten minutes at 20,000×g (Sorvall RC-2), 4° C. The supernatant was discarded, and the pellet was resuspended and centrifuged as before. […] The homogenate was again centrifuged, and the final pellet was resuspended in ice-cold 0.05 M Tris-HCl buffer pH 7.7 to a concentration of 20 mg/ml original wet tissue weight and used immediately. […] Incubation volume was 2 ml. […] The filters were rinsed three times with 5 ml of ice cold 0.05 M Tris-HCl buffer pH 7.7. The radio-labeled ligand retained on the filter was measured by liquid scintillation spectrophotometry after shaking the filters for one hour or longer on a mechanical shaker in 10 ml of Beckman Ready-Solv HP scintillation cocktail. […] The Hill coefficient was calculated by linear regression of the line obtained by plotting the log of the bound radioligand vs the log of the [formula] The maximal number of binding sites (Bmax) was calculated from the Scatchard plot.
# Type 1 Phosphodiesterase = assay: Phosphodiesterase (PDE) Inhibition, Type 1 Phosphodiesterase; format: biochemical, bovine (coronary arteries); conditions: Type 1 PDE, at 10^-5 M; for % Inhibition of hydrolysis of 3H-cAMP: substrate 3H-cAMP 1.0 μM; for % Inhibition of hydrolysis of 3H-cGMP: substrate 3H-cGMP 1.0 μM
# Text: (§1) The method of Thompson, et al (Thompson, W. J., Terasaki, W. L., Epstein, P. M., Strada, S. J., Adv. Cyclic Nucleotide Res., 10:69-92, 1979), with minor modifications, was used to isolate phosphodiesterases from vascular smooth muscle. Bovine coronary arteries (right, anterior descending, and left circumflex arteries) from hearts obtained from a local slaughterhouse were used for these studies. Arteries from two hearts were used for each isolation. Hearts were kept on ice and the arteries were dissected within two hours after the animals were sacrificed. After removing all fat and connective tissue, the arteries were everted, cut into cubes with a single edge razor blade and homogenized with a Brinkman Polytron three times at a rheostat setting of 10.0 in four volumes of the PDE isolation buffer (10 mM Tris-HCl/pH 7.5, 2 mM MgCl2, and 1 mM dithiothreitol). The resulting homogenate was sonicated (30 sec/ml homogenate) and then centrifuged at 30,000 xg for 20 minutes. This and all subsequent procedures were performed at 4° C. The resulting supernatant was filtered through four layers of gauze, and applied to a DEAE-cellulose column (30×1.5 cm), prepared as described by Cheung (Cheung, W. Y., Biochim. Biophys. Acta, 191:303-315, 1969), and equilibrated with freshly prepared 70 mM sodium acetate/5 mM 2-mercaptoethanol (pH 6.5). The column was then washed with 2-3 bed volumes of sodium acetate/2-mercaptoethanol, after which the phosphodiesterases were eluted from the column using a continuous 70-1,000 mM sodium acetate gradient (pH 6.5, containing 5 mM 2-mercaptoethanol; total volume 400 ml). The flow rate was approximately equal to 25 ml/hr. Eight ml fractions were collected and assayed for cyclic AMP- and cyclic GMP-phosphodiesterase activity in the presence and absence of 0.1 units of calmodulin and 10 mM CaCl2. Appropriate fractions were pooled and dialyzed against 70 mM sodium acetate/5 mM 2-mercaptoethanol for 20 hours.
# (§2) Following complete separation, the combined phosphodiesterase fractions were concentrated to 14% of the original volume using an Amicon ultrafiltration cell fitted with a UM-10 membrane, according to the method of Wells, et al (Wells, J. N., Baird, C. E., Wu, Y. J., Hardman, J. G., Biochim. Biophys. Acta, 384:430-442, 1975). Following concentration, the protein was then diluted to 65% with ethylene glycol monoethyl ether, and stored at -20° C.
# (§3) Phosphodiesterase activity was measured as described previously (Weishaar, P. E., Quade, M., Boyd, D., Schenden, J., Mark, S. S., Kaplan, H. R., Drug Devel. Res., 3:517-534, 1983), in a reaction medium containing 40 mM Tris-HCl (pH 8.0), 5 mM MgCl and 4 mM 2-mercaptoethanol. Unless otherwise noted, the concentration of substrate (^3 H-cyclic AMP or ^3 H-cyclic GMP) was 1.0 μM. All agents examined were dissolved in dimethyl sulfoxide (DMSO). Final concentration of the reaction medium was either 2.5% (cardiac and platelet studies) or 1.25% (smooth muscle studies). This concentration of DMSO produced an approximately 10% inhibition of enzyme activity.
# Type 3 Phosphodiesterase = assay: Phosphodiesterase (PDE) Inhibition, Type 3 Phosphodiesterase; format: biochemical, bovine (coronary arteries); conditions: Type 3 PDE, at 10^-5 M, substrate 3H-cAMP 1.0 μM
# Text: as §1, §2, §3
# [1] = system: pentobarbital-anesthetized dog; assay: In Vivo Myocardial Inotropic Activity in Anesthetized Dog (CVAD); parameters: species or system dog (adult mongrel); conditions: for change in vivo at 0.1 mg/kg / change in vivo at 0.31 mg/kg / change in vivo at 1 mg/kg / change in vivo at 3.1 mg/kg / change in vivo at 0.01 mg/kg / change in vivo at 0.03 mg/kg / change in vivo at 0.3 mg/kg: Canis lupus familiaris, iv; for change in vivo at 3.1 mg/kg: 3.10 mg/kg IV; for change in vivo at 0.3 mg/kg: Test 1, 0.30 mg/kg IV
# Method: This test procedure is described in the following paragraphs.
# This screen consists of determining the effects of increasing intravenous doses of compound on mycardial contractility (dP/dt max of left ventricular blood pressure), heart rate, and aortic blood pressure of the pentobarbital-anesthetized dog.
# Adult mongrel dogs of either sex are anesthetized with pentobarbital, 35 mg/kg, IV, and are subsequently maintained under anesthesia with a continuous infusion of pentobarbital, 3.5 mg/kg/hour. The trachea is intubated but the animals are permitted to breathe spontaneously. A cannula is inserted into the femoral vein for administrating test agents. A Millar catheter tip pressure transducer or a fluid filled catheter is inserted into the ascending aorta via the femoral artery for measuring aortic blood pressure. A Millar catheter tip pressure transducer is passed into the left ventricle via the left carotid artery for measuring left ventricular blood pressure. Needle electrodes are placed subcutaneously for recording a lead II electrocardiogram (ECG).
# Left ventricular and aortic blood pressures are recorded on a strip chart recorder. Heart rate, using a biotachometer triggered from the R wave of the ECG, and the first derivative of left ventricular blood pressure (dP/dt), obtained with a differentiator amplifier coupled to the corresponding pressure amplifier, are also recorded. A period of at least 30 minutes is utilized to obtain control data prior to administration of test compound.
# Ethanol or dimethylacetamide can be used as solvents if adequate dilutions can be made. Appropriate vehicle controls are administered when needed.
# Each dose of the test compound is administered in a volume of […] over a period of one minute.
# [2] = 0.31 mg/kg IV, read-out: Percent Change Heart Rate
# [3] = 0.31 mg/kg IV, read-out: Percent Change Myocardial Contractility
# [4] = 1.00 mg/kg IV, read-out: Percent Change Heart Rate
# [5] = 1.00 mg/kg IV, read-out: Percent Change Myocardial Contractility
# [6] = read-out: Percent Change Heart Rate
# [7] = read-out: Percent Change Myocardial Contractility
compound,measurement,setting,value
"COc1ccc(-c2nc3c(C)nn(C)c3c(=O)[nH]2)c(OC)c1 [Example 17, 1,3-Dimethyl-5-(2,4-dimethoxyphenyl)pyrazolo[4,3-d]-pyrimidine-7-one]",IC50,adenosine A1 receptor,5.43 µM
same,% Inhibition of hydrolysis of 3H-cAMP,Type 1 Phosphodiesterase,15%
same,% Inhibition of hydrolysis of 3H-cGMP,Type 1 Phosphodiesterase,26%
same,% Inhibition of hydrolysis of 3H-cAMP,Type 3 Phosphodiesterase,17%
Cc1nn(C)c2c(=O)[nH]c(-c3ccc(S(=O)(=O)NCCN(C)C)cc3)nc12 [Example 21],IC50,adenosine A1 receptor,0.684 µM
"Cc1nn(C)c2c(=O)[nH]c(-c3ccc(Cl)cc3[N+](=O)[O-])nc12 [Example 18, 1,3-Dimethyl-5-(2-nitro-4-chlorophenyl)pyrazolo-[4,3-d]pyrimidine-7-one]",IC50,adenosine A1 receptor,8.5 µM
same,% Inhibition of hydrolysis of 3H-cAMP,Type 1 Phosphodiesterase,7%
same,% Inhibition of hydrolysis of 3H-cGMP,Type 1 Phosphodiesterase,5%
same,% Inhibition of hydrolysis of 3H-cAMP,Type 3 Phosphodiesterase,7%
COc1ccccc1-c1nc2c(C)nn(C)c2c(=O)[nH]1 [Example 14],change in vivo at 0.1 mg/kg,"[1]; 0.10 mg/kg IV, read-out: Percent Change Heart Rate",2%
same,change in vivo at 0.1 mg/kg,"[1]; 0.10 mg/kg IV, read-out: Percent Change Myocardial Contractility",2%
same,change in vivo at 0.31 mg/kg,[1]; [2],4%
same,change in vivo at 0.31 mg/kg,[1]; [3],4%
same,change in vivo at 1 mg/kg,[1]; [4],14%
same,change in vivo at 1 mg/kg,[1]; [5],10%
same,change in vivo at 3.1 mg/kg,[1]; [6],27%
same,change in vivo at 3.1 mg/kg,[1]; [7],34%
same,IC50,adenosine A1 receptor,10 µM
"Cc1nn(C)c2c(=O)[nH]c(-c3ccc(Cl)cc3N)nc12 [Example 19, 1,3-Dimethyl-5-(2-amino-4-chlorophenyl)pyrazolo[4,3-d]pyrimidine-7-one]",IC50,adenosine A1 receptor,0.314 µM
same,% Inhibition of hydrolysis of 3H-cAMP,Type 1 Phosphodiesterase,16%
same,% Inhibition of hydrolysis of 3H-cGMP,Type 1 Phosphodiesterase,12%
same,% Inhibition of hydrolysis of 3H-cAMP,Type 3 Phosphodiesterase,5%
CCn1nc(C)c2nc(Cc3ccccc3)[nH]c(=O)c21 [Example 22],change in vivo at 0.01 mg/kg,"[1]; Test 1, 0.01 mg/kg IV, read-out: Percent Change Heart Rate",-1%
same,change in vivo at 0.01 mg/kg,"[1]; Test 1, 0.01 mg/kg IV, read-out: Percent Change Myocardial Contractility",11%
same,change in vivo at 0.03 mg/kg,"[1]; Test 1, 0.03 mg/kg IV, read-out: Percent Change Heart Rate",-1%
same,change in vivo at 0.03 mg/kg,"[1]; Test 1, 0.03 mg/kg IV, read-out: Percent Change Myocardial Contractility",12%
same,change in vivo at 0.1 mg/kg,"[1]; Test 1, 0.10 mg/kg IV, read-out: Percent Change Heart Rate",-4%
same,change in vivo at 0.1 mg/kg,"[1]; Test 1, 0.10 mg/kg IV, read-out: Percent Change Myocardial Contractility",17%
same,change in vivo at 0.3 mg/kg,[1]; [6],-10%
same,change in vivo at 0.3 mg/kg,[1]; [7],6%
same,change in vivo at 1 mg/kg,"[1]; Test 1, 1.00 mg/kg IV, read-out: Percent Change Heart Rate",-12%
same,change in vivo at 1 mg/kg,"[1]; Test 1, 1.00 mg/kg IV, read-out: Percent Change Myocardial Contractility",14%
same,change in vivo at 0.01 mg/kg,"[1]; Test 2, 0.01 mg/kg IV, read-out: Percent Change Heart Rate",-14%
same,change in vivo at 0.01 mg/kg,"[1]; Test 2, 0.01 mg/kg IV, read-out: Percent Change Myocardial Contractility",-12%
same,change in vivo at 0.03 mg/kg,"[1]; Test 2, 0.03 mg/kg IV, read-out: Percent Change Heart Rate",-17%
same,change in vivo at 0.03 mg/kg,"[1]; Test 2, 0.03 mg/kg IV, read-out: Percent Change Myocardial Contractility",-13%
same,change in vivo at 0.1 mg/kg,"[1]; Test 2, 0.10 mg/kg IV, read-out: Percent Change Heart Rate",-21%
same,change in vivo at 0.1 mg/kg,"[1]; Test 2, 0.10 mg/kg IV, read-out: Percent Change Myocardial Contractility",-15%
same,change in vivo at 0.31 mg/kg,"[1]; Test 2, 0.31 mg/kg IV, read-out: Percent Change Heart Rate",-22%
same,change in vivo at 0.31 mg/kg,"[1]; Test 2, 0.31 mg/kg IV, read-out: Percent Change Myocardial Contractility",-14%
same,change in vivo at 1 mg/kg,"[1]; Test 2, 1.00 mg/kg IV, read-out: Percent Change Heart Rate",-11%
same,change in vivo at 1 mg/kg,"[1]; Test 2, 1.00 mg/kg IV, read-out: Percent Change Myocardial Contractility",2%
same,Percent Change Blood Pressure,"[1]; Test 1, 0.01 mg/kg IV",1/0
same,IC50,adenosine A1 receptor,8.2 µM
"Cc1nn(C)c2c(=O)[nH]c(-c3ccc(Cl)cc3)nc12 [Example 7, 1,3-Dimethyl-5-(4-chlorophenyl)pyrazolo[4,3-d]pyrimidne-7-one]",IC50,adenosine A1 receptor,0.408 µM
same,% Inhibition of hydrolysis of 3H-cAMP,Type 1 Phosphodiesterase,7%
same,% Inhibition of hydrolysis of 3H-cGMP,Type 1 Phosphodiesterase,11%
same,% Inhibition of hydrolysis of 3H-cAMP,Type 3 Phosphodiesterase,13%
"COc1cc(OC)cc(-c2nc3c(C)nn(C)c3c(=O)[nH]2)c1 [Example 23, 1,3-Dimethyl-5-(3,5-dimethoxyphenyl)pyrazolo[4,3-d]-pyrimidine-7-one]",Percent Change Blood Pressure,[1]; 0.01 mg/kg IV,2/2
same,Percent Change Blood Pressure,[1]; 0.31 mg/kg IV,3/4
same,change in vivo at 0.01 mg/kg,"[1]; 0.01 mg/kg IV, read-out: Percent Change Heart Rate",1%
same,change in vivo at 0.01 mg/kg,"[1]; 0.01 mg/kg IV, read-out: Percent Change Myocardial Contractility",5%
same,change in vivo at 0.31 mg/kg,[1]; [2],3%
same,change in vivo at 0.31 mg/kg,[1]; [3],15%
same,change in vivo at 1 mg/kg,[1]; [4],6%
same,change in vivo at 1 mg/kg,[1]; [5],22%
"Cc1nn(C)c2c(O)nc(-c3ccc(S(=O)(=O)O)cc3)nc12 [Example 20, 1,3-Dimethyl-5-(4-sulfoacid phenyl)pyrazolo[4,3-d]pyrimidine-7-one]",IC50,adenosine A1 receptor,13 µM
